Data as given in ChEMBL document CHEMBL2440076, “New triarylpyrazoles as broad-spectrum anticancer agents: design, synthesis, and biological evaluation” (Eur J Med Chem, 2013).

Columns and labels:
Assay type in all cases: functional
M14 [1] = test: Growth inhibition of human M14 cells assessed as cell growth at 5X10'-5 M after 48 hrs by sulforhodamine B assay; conditions: M14, 48 h, read-out: Activity
SW-620 = test: Growth inhibition of human SW620 cells assessed as cell growth at 5X10'-5 M after 48 hrs by sulforhodamine B assay; conditions: SW-620, 48 h, read-out: Activity
SR = test: Growth inhibition of human SR cells assessed as cell growth at 5X10'-5 M after 48 hrs by sulforhodamine B assay; conditions: read-out: Activity
MCF7 [2] = test: Growth inhibition of human MCF7 cells assessed as cell growth at 5X10'-6 M after 48 hrs by sulforhodamine B assay; conditions: MCF7, 48 h, read-out: Activity
PC-3 [3] = test: Growth inhibition of human PC3 cells assessed as cell growth at 5X10'-6 M after 48 hrs by sulforhodamine B assay; conditions: PC-3, 48 h, read-out: Activity
RXF 393 [4] = test: Growth inhibition of human RXF393 cells assessed as cell growth at 5X10'-6 M after 48 hrs by sulforhodamine B assay; conditions: RXF 393, 48 h, read-out: Activity
CAKI-1 = test: Growth inhibition of human CAKI-1 cells assessed as cell growth at 5X10'-6 M after 48 hrs by sulforhodamine B assay; conditions: CAKI-1, 48 h, read-out: Activity
A498 [5] = test: Growth inhibition of human A498 cells assessed as cell growth at 5X10'-6 M after 48 hrs by sulforhodamine B assay; conditions: A498, 48 h, read-out: Activity
SK-OV-3 = test: Growth inhibition of human SKOV3 cells assessed as cell growth at 5X10'-6 M after 48 hrs by sulforhodamine B assay; conditions: SK-OV-3, 48 h, read-out: Activity
SK-MEL-28 [6] = test: Growth inhibition of human SK-MEL-28 cells assessed as cell growth at 5X10'-6 M after 48 hrs by sulforhodamine B assay; conditions: SK-MEL-28, 48 h, read-out: Activity
HL-60(TB) [7] = test: Growth inhibition of human HL-60(TB) cells assessed as cell growth at 5X10'-6 M after 48 hrs by sulforhodamine B assay; conditions: HL-60, 48 h, read-out: Activity
CCRF-CEM = test: Growth inhibition of human CCRF-CEM cells assessed as cell growth at 5X10'-6 M after 48 hrs by sulforhodamine B assay; conditions: read-out: Activity
BT-549 [8] = test: Growth inhibition of human BT549 cells assessed as cell growth at 5X10'-7 M after 48 hrs by sulforhodamine B assay; conditions: BT-549, 48 h, read-out: Activity
OVCAR-3 = test: Growth inhibition of human OVCAR3 cells assessed as cell growth at 5X10'-7 M after 48 hrs by sulforhodamine B assay; conditions: OVCAR-3, 48 h, read-out: Activity
LOX IMVI = test: Growth inhibition of human LOXIMVI cells assessed as cell growth at 5X10'-7 M after 48 hrs by sulforhodamine B assay; conditions: read-out: Activity
SNB-19 = test: Growth inhibition of human SNB19 cells assessed as cell growth at 5X10'-7 M after 48 hrs by sulforhodamine B assay; conditions: SNB-19, 48 h, read-out: Activity
NCI-H460 = test: Growth inhibition of human NCI-H460 cells assessed as cell growth at 5X10'-7 M after 48 hrs by sulforhodamine B assay; conditions: NCI-H460, 48 h, read-out: Activity
NCI-H226 [9] = test: Growth inhibition of human NCI-H226 cells assessed as cell growth at 5X10'-7 M after 48 hrs by sulforhodamine B assay; conditions: NCI-H226, 48 h, read-out: Activity
HL-60(TB) [10] = test: Growth inhibition of human HL-60(TB) cells assessed as cell growth at 5X10'-7 M after 48 hrs by sulforhodamine B assay; conditions: HL-60, 48 h, read-out: Activity
PC-3 [11] = test: Growth inhibition of human PC3 cells assessed as cell growth at 5X10'-8 M after 48 hrs by sulforhodamine B assay; conditions: PC-3, 48 h, read-out: Activity
OVCAR-8 = test: Growth inhibition of human OVCAR8 cells assessed as cell growth at 5X10'-8 M after 48 hrs by sulforhodamine B assay; conditions: OVCAR-8, 48 h, read-out: Activity
SK-MEL-28 [12] = test: Growth inhibition of human SK-MEL-28 cells assessed as cell growth at 5X10'-8 M after 48 hrs by sulforhodamine B assay; conditions: SK-MEL-28, 48 h, read-out: Activity
Malme-3M = test: Growth inhibition of human MALME-3M cells assessed as cell growth at 5X10'-8 M after 48 hrs by sulforhodamine B assay; conditions: read-out: Activity
KM12 = test: Growth inhibition of human KM12 cells assessed as cell growth at 5X10'-8 M after 48 hrs by sulforhodamine B assay; conditions: KM12, 48 h, read-out: Activity
BT-549 [13] = test: Growth inhibition of human BT549 cells assessed as cell growth at 5X10'-5 M after 48 hrs by sulforhodamine B assay; conditions: BT-549, 48 h, read-out: Activity
[14] = Growth inhibition of human Hs 578T cells assessed as cell growth at 5X10'-5 M after 48 hrs by sulforhodamine B assay; conditions: read-out: Activity
MCF7 [15] = test: Growth inhibition of human MCF7 cells assessed as cell growth at 5X10'-5 M after 48 hrs by sulforhodamine B assay; conditions: MCF7, 48 h, read-out: Activity
A498 [16] = test: Growth inhibition of human A498 cells assessed as cell growth at 5X10'-5 M after 48 hrs by sulforhodamine B assay; conditions: A498, 48 h, read-out: Activity
[17] = Growth inhibition of human NCI-ADR-RES cells assessed as cell growth at 5X10'-5 M after 48 hrs by sulforhodamine B assay; conditions: read-out: Activity
COLO 205 = test: Growth inhibition of human COLO205 cells assessed as cell growth at 5X10'-8 M after 48 hrs by sulforhodamine B assay; conditions: COLO 205, 48 h, read-out: Activity
NCI-H522 = test: Growth inhibition of human NCI-H522 cells assessed as cell growth at 5X10'-8 M after 48 hrs by sulforhodamine B assay; conditions: NCI-H522, 48 h, read-out: Activity
NCI-H226 [18] = test: Growth inhibition of human NCI-H226 cells assessed as cell growth at 5X10'-8 M after 48 hrs by sulforhodamine B assay; conditions: NCI-H226, 48 h, read-out: Activity
HL-60(TB) [19] = test: Growth inhibition of human HL-60(TB) cells assessed as cell growth at 5X10'-8 M after 48 hrs by sulforhodamine B assay; conditions: HL-60, 48 h, read-out: Activity
[20] = Growth inhibition of human Hs 578T cells assessed as cell growth at 5X10'-9 M after 48 hrs by sulforhodamine B assay; conditions: read-out: Activity
RXF 393 [21] = test: Growth inhibition of human RXF393 cells assessed as cell growth at 5X10'-9 M after 48 hrs by sulforhodamine B assay; conditions: RXF 393, 48 h, read-out: Activity
ACHN = test: Growth inhibition of human ACHN cells assessed as cell growth at 5X10'-9 M after 48 hrs by sulforhodamine B assay; conditions: read-out: Activity
MDA-MB-435 = test: Growth inhibition of human MDA-MB-435 cells assessed as cell growth at 5X10'-9 M after 48 hrs by sulforhodamine B assay; conditions: MDA-MB-435, 48 h, read-out: Activity
M14 [22] = test: Growth inhibition of human M14 cells assessed as cell growth at 5X10'-9 M after 48 hrs by sulforhodamine B assay; conditions: M14, 48 h, read-out: Activity

Work on `O=C(Nc1cccc(-n2cc(-c3ccncc3)c(-c3ccc(Cl)c(O)c3)n2)c1)c1ccc(N2CCOCC2)c(C(F)(F)F)c1` yielded a growth at 50 µM (M14 [1]) of -50%, a growth at 50 µM (SW-620) of -31% and a growth at 50 µM (SR) of 8%. For the same molecule, the growth at 5 µM (MCF7 [2]) was 41%, the growth at 5 µM (PC-3 [3]) was 29% and the growth at 5 µM (RXF 393 [4]) was -18%. It also gave a growth at 5 µM (CAKI-1) of 34%, a growth at 5 µM (A498 [5]) of 92% and a growth at 5 µM (SK-OV-3) of 72%. For the same molecule, the growth at 5 µM (SK-MEL-28 [6]) was 5%, the growth at 5 µM (HL-60(TB) [7]) was 39% and the growth at 5 µM (CCRF-CEM) was 26%. The growth at 0.5 µM (BT-549 [8]) was 111%, the growth at 0.5 µM (OVCAR-3) was 106% and the growth at 0.5 µM (LOX IMVI) was 92%. For the same molecule, the growth at 0.5 µM (SNB-19) was 105%, the growth at 0.5 µM (NCI-H460) was 98% and the growth at 0.5 µM (NCI-H226 [9]) was 99%. It also gave a growth at 0.5 µM (HL-60(TB) [10]) of 130%, a growth at 0.05 µM (PC-3 [11]) of 96% and a growth at 0.05 µM (OVCAR-8) of 106%. For the same molecule, the growth at 0.05 µM (SK-MEL-28 [12]) was 102%, the growth at 0.05 µM (Malme-3M) was 87% and the growth at 0.05 µM (KM12) was 93%. It also gave a growth at 50 µM (BT-549 [13]) of 36%, a growth at 50 µM [14] of 8% and a growth at 50 µM (MCF7 [15]) of 12%. It also gave a growth at 50 µM (A498 [16]) of 6%, a growth at 50 µM [17] of 16% and a growth at 0.05 µM (COLO 205) of 102%. It also gave a growth at 0.05 µM (NCI-H522) of 94%, a growth at 0.05 µM (NCI-H226 [18]) of 95% and a growth at 0.05 µM (HL-60(TB) [19]) of 117%. For the same molecule, the growth at 0.005 µM [20] was 92%, the growth at 0.005 µM (RXF 393 [21]) was 105% and the growth at 0.005 µM (ACHN) was 102%. The growth at 0.005 µM (MDA-MB-435) was 93% and the growth at 0.005 µM (M14 [22]) was 96%.
